In patent US12534456B2, “Heterocyclyl pyridines as novel fungicides” (Bayer Aktiengesellschaft, priority 2020, dated 2026):

Tests used:
physchem = assay type: physicochemical
Description: Measurement of Log P values as provided herein was performed according to EEC directive 79/831 Annex V.A8 by HPLC (High Performance Liquid Chromatography) on reversed phase columns with the following methods: • ^[a]
If more than one Log P value is available within the same method, all the values are given and separated by “+”.
Lambda-max-values were determined using UV-spectra from 200 nm to 400 nm and the peak values of the chromatographic signals

Alternaria alternata = Alternaria alternata in vitro cell test; assay type: cell-based; details: 120 h, 20 ppm of active ingredient, liquid culture with spores, 5 days incubation, spectrometric measurement of mycelium growth, read-out: efficacy (inhibition of fungal growth)
Description: (§1) B-5. Alternaria alternata In Vitro Cell Test • Solvent: DMSO • Culture medium: 14.6 g anhydrous D-glucose (VWR), 7.1 g Mycological Peptone (Oxoid), 1.4 g granulated Yeast Extract (Merck), QSP 1 liter • Inoculum: spores suspension • Fungicides were solubilized in DMSO and the solution used to prepare the required range of concentrations. […] A spore suspension of A. alternata was prepared and diluted to the desired spore density. Fungicides were evaluated for their ability to inhibit spore germination and mycelium growth in liquid culture assay. The compounds were added in the desired concentration to the culture medium with spores. After 5 days incubation, fungi-toxicity of compounds was determined by spectrometric measurement of mycelium growth. Inhibition of fungal growth was determined by comparing the absorbance values in wells containing the fungicides with the absorbance in control wells without fungicides.

Pyricularia oryzae = assay: microbe, parasite or virus in culture; assay type: cell-based; details: 120 h, read-out: efficacy (inhibition of fungal growth)
[1] = system: Colletotrichum lindemuthianum; assay: Colletotrichum lindemuthianum in vitro cell test; assay type: cell-based; details: 144 h, 20 ppm of active ingredient, liquid culture with spores, 6 days incubation, spectrometric measurement of mycelium growth, read-out: efficacy (inhibition of fungal growth)
Description: as §1, with “B-7. Colletotrichum lindemuthianum In” for “B-5. Alternaria alternata In”, “of C. lindemuthianum” for “of A. alternata”, “inhibit spores” for “inhibit spore”, “After 6” for “After 5”

Septoria tritici = Septoria tritici in vitro cell test; assay type: cell-based; details: Zymoseptoria tritici, 168 h; 20 ppm of active ingredient; liquid culture with spores, 7 days incubation, spectrometric measurement of mycelium growth; read-out: efficacy (inhibition of fungal growth)
Description: B-8. Septoria tritici In Vitro Cell Test • Solvent: DMSO • Culture medium: 1 g KH2PO4 (VWR), 1 g K2HPO4 (VWR), 0.5 g Urea (VWR), 3 g KNO3 (Prolabo), 10 g saccharose (VWR), 0.5 g MgSO4, 7H2O (Sigma), 0.07 g CaCl2, 2H2O (Prolabo), 0.2 mg MnSO4, H2O (Sigma), 0.6 mg CuSO4, 5H2O (Sigma), 7.9 mg ZnSO4, 7H2O (Sigma), 0.1 mg H3BO3 (Merck), 0.14 mg NaMoO4, 2H2O (Sigma), 2 mg thiamine (Sigma), 0.1 mg biotine (VWR), 4 mg FeSO4, 7H2O (Sigma), QSP 1 liter • Inoculum: spore suspension Fungicides were solubilized in DMSO and the solution used to prepare the required range of concentrations. […] A spore suspension of S. tritici was prepared and diluted to the desired spore density. Fungicides were evaluated for their ability to inhibit spore germination and mycelium growth in liquid culture assay. The compounds were added in the desired concentration to the culture medium with spores. […] Inhibition of fungal growth was determined by comparing the absorbance values in wells containing the fungicides with the absorbance in control wells without fungicides.

Fusarium culmorum = Fusarium culmorum in vitro cell test; assay type: cell-based; details: 96 h, read-out: efficacy (inhibition of fungal growth)
Description: B-9. Fusarium culmorum In Vitro Cell Test
• Solvent: DMSO • Culture medium: 14.6 g anhydrous D-glucose (VWR), 7.1 g Mycological Peptone (Oxoid), 1.4 g granulated Yeast Extract (Merck), QSP 1 liter • Inoculum: spore suspension
Fungicides were solubilized in DMSO and the solution used to prepare the required range of concentrations. The final concentration of DMSO used in the assay was ≤1%.
A spore suspension of F. culmorum was prepared and diluted to the desired spore density.
Fungicides were evaluated for their ability to inhibit spore germination and mycelium growth in liquid culture assay. The compounds were added in the desired concentration to the culture medium with spores. After 4 days incubation, fungi-toxicity of compounds was determined by spectrometric measurement of mycelium growth. Inhibition of fungal growth was determined by comparing the absorbance values in wells containing the fungicides with the absorbance in control wells without fungicides.

[2] = Table 1, compounds of formula (I), method [a]: LC-UV, acidic range, 0.1% formic acid in water and acetonitrile

SMILES | chromatographic logP (physchem; [2]) | inhibition at 20 ppm (Alternaria alternata) [%] | inhibition at 20 ppm [1] [%] | LogP (physchem) | further results
Cc1cc(C2=NOCC(Cc3ccc(Cl)cc3Cl)N2)c(Oc2cccc(C3CC3)c2F)cn1 (racemic) [Compound I-029, (5RS)-3-[5-(3-cyclopropyl-2-fluorophenoxy)-2-methylpyridin-4-yl]-5-(2,4-dichlorobenzyl)-5,6-dihydro-4H-1,2,4-oxadiazine] | 4.23 | 90 to 100 | 90 to 100 |  | inhibition at 20 ppm (Pyricularia oryzae): 90 to 100%; inhibition at 20 ppm (Septoria tritici): 90 to 100%; inhibition at 20 ppm (Fusarium culmorum): 90 to 100%
Cc1ccc(CC2CCN=C(c3cc(Cl)ncc3Oc3cccc(C(F)(F)F)c3)N2)c(C)c1 (racemic) [Compound I-088, rac-(6R)-2-[2-chloro-5-[3-(trifluoromethyl)phenoxy]-4-pyridyl]-6-[(2,4-dimethylphenyl)methyl]-1,4,5,6-tetrahydropyrimidine] | 2.62 | 80 to 89 | 70 to 79 |  | 
Cc1ccc(C[C@@H]2CON=C(c3cc([C@@H]4CCOC4)ncc3Oc3cccc(C(F)(F)F)c3)N2)cc1 (racemic) [Compound I-058, (5RS)-5-(4-methylbenzyl)-3-{2-[(3SR)-tetrahydrofuran-3-yl]-5-[3-(trifluoromethyl)phenoxy]pyridin-4-yl}-5,6-dihydro-4H-1,2,4-oxadiazine] | 3.78 | 90 to 100 | 90 to 100 |  | inhibition at 20 ppm (Pyricularia oryzae): 90 to 100%; inhibition at 20 ppm (Septoria tritici): 90 to 100%; inhibition at 20 ppm (Fusarium culmorum): 90 to 100%
Cc1ccc(CC2CC(=O)N=C(c3cc(Cl)ncc3Oc3cccc(C(F)(F)F)c3)N2)c(C)c1 (racemic) [Compound I-098, rac-(6R)-2-[2-chloro-5-[3-(trifluoromethyl)phenoxy]-4-pyridyl]-6-[(2,4-dimethylphenyl)methyl]-5,6-dihydro-1H-pyrimidin-4-one] | 4.62 | 80 to 89 | 90 to 100 |  | 
Cc1ccc(CC2CON=C(c3cc(N4CCCC4)ncc3Oc3cccc(C(F)(F)F)c3)N2)cc1 (racemic) [Compound I-056, (5RS)-5-(4-methylbenzyl)-3-{2-(pyrrolidin-1-yl)-5-[3-(trifluoromethyl)phenoxy]pyridin-4-yl}-5,6-dihydro-4H-1,2,4-oxadiazine] | 3.5 | 90 to 100 | 90 to 100 |  | inhibition at 20 ppm (Pyricularia oryzae): 80 to 89%
Cc1ccc(CC2CON=C(c3ccncc3Oc3cccc(C(F)(F)F)c3)N2)cc1 (racemic) [Compound I-039, (5RS)-5-(4-methylbenzyl)-3-{3-[3-(trifluoromethyl)phenoxy]pyridin-4-yl}-5,6-dihydro-4H-1,2,4-oxadiazine] | 3.47 | 90 to 100 | 90 to 100 |  | inhibition at 20 ppm (Septoria tritici): 80 to 89%; inhibition at 20 ppm (Fusarium culmorum): 90 to 100%
Cc1ccc(CC2CON=C(c3cc(Cl)ncc3Oc3cccc(C(F)(F)F)c3)N2)c(C)c1 (racemic) [Compound I-001, (5RS)-3-{2-chloro-5-[3-(trifluoromethyl)phenoxy]pyridin-4-yl}-5-(2,4-dimethylbenzyl)-5,6-dihydro-4H-1,2,4-oxadiazine] | 4.56 | 90 to 100 | 90 to 100 |  | inhibition at 20 ppm (Pyricularia oryzae): 90 to 100%; inhibition at 20 ppm (Fusarium culmorum): 90 to 100%
FC(F)c1cccc(Oc2cnc(Cl)cc2C2=NOC[C@@H](Cc3ccc([C@H]4CCOC4)cc3Cl)N2)c1 (racemic) [Compound I-041, (5RS)-3-{2-chloro-5-[3-(difluoromethyl)phenoxy]pyridin-4-yl}-5-{2-chloro-4-[(3RS)-tetrahydrofuran-3-yl]benzyl}-5,6-dihydro-4H-1,2,4-oxadiazine] | 3.81 | 90 to 100 | 90 to 100 |  | inhibition at 20 ppm (Pyricularia oryzae): 80 to 89%; inhibition at 20 ppm (Septoria tritici): 70 to 79%
Cc1cc(C2CC2)ccc1CC1CON=C(c2cc(Cl)ncc2Oc2cccc(C(F)(F)F)c2)N1 (racemic) [Compound I-107, rac-(5R)-3-[2-chloro-5-[3-(trifluoromethyl)phenoxy]-4-pyridyl]-5-[(4-cyclopropyl-2-methyl-phenyl)methyl]-5,6-dihydro-4H-1,2,4-oxadiazine] | 4.88 | 80 to 89 | 90 to 100 |  | inhibition at 20 ppm (Pyricularia oryzae): 90 to 100%; inhibition at 20 ppm (Septoria tritici): 90 to 100%
Cc1ccc(CC2CON=C(c3c(Oc4cccc(C(F)(F)F)c4)cnc(Cl)c3F)N2)c(C)c1 (racemic) [Compound I-062] |  |  |  | 4.66^[a] | 
Cc1ccc(CC2CN=C(c3cc(Cl)ncc3Oc3cccc(C(F)(F)F)c3)N2)c(C)c1 (racemic) [Compound I-081] |  |  |  | 2.64^[a] | 
Fc1c(Oc2cnc(Cl)cc2C2=NOCC(Cc3ccc(Cl)cc3Cl)N2)cccc1OC(F)(F)F (centres unmarked) [Compound I-149] |  |  |  | 4.88^[a] | 
COc1cc(C2=NOCC(Cc3ccc(C)cc3C)N2)c(Oc2cccc(C(F)(F)F)c2)cn1 (centres unmarked) [Compound I-152] |  |  |  | 4.55^[a] | 
Cc1cccc(Oc2cnc(Cl)cc2C(=O)NC(CON)Cc2ccc(C)cc2C)c1 (centres unmarked) [4-07] |  |  |  | 3.37^[a] | 
Cc1ccc(CC(CCl)NC(=NO)c2cc(Cl)ncc2Br)c(Cl)c1 (centres unmarked) [18-02] |  |  |  | 3.85^[a] | 
Cc1ccc(CC(CCl)NC(=O)c2cc(Cl)ncc2Br)c(Cl)c1 (centres unmarked) [17-02] |  |  |  | 3.94^[a] | 
Cc1ccc(CC2CON=C(c3cc(C(F)(F)F)ncc3Br)N2)c(C)c1 (racemic) [Compound 7-03, (5RS)-3-[5-bromo-2-(trifluoromethyl)pyridin-4-yl]-5-(2,4-dimethylbenzyl)-5,6-dihydro-4H-1,2,4-oxadiazine] |  |  |  |  | chromatographic logP (physchem; Table 13, compounds of formula (7), method [a]): 2.43
Cc1ccc(CC2CON=C(c3cc(Cl)ncc3Oc3cccc(C4CC4F)c3)N2)c(C)c1 (mixture of isomers) [Compound I-143] |  |  |  | 4.38^[a] | 
C#Cc1cc(C2=NOCC(Cc3ccc(Br)cc3C)N2)c(Oc2cccc(C(F)(F)F)c2)cn1 (racemic) [Compound I-091] |  |  |  | 4.19^[a] | 
FC(F)c1cccc(Oc2cnc(Cl)cc2C2=NOCC(Cc3ccc(Br)cc3Cl)N2)c1 (racemic) [Compound I-004] |  |  |  | 4.32^[a] | 
FC(F)(F)c1cc(Oc2cnc(Cl)cc2C2=NOCC(Cc3ccc(Cl)cc3Cl)N2)cs1 (racemic) [Compound I-072] |  |  |  | 4.75^[a] | 
CCN(C)c1cc(C2=NOCC(Cc3ccc(C)cc3Cl)N2)c(Oc2cccc(Cl)c2F)cn1 (racemic) [Compound I-112] |  |  |  | 4.59^[a] | 
Cc1cc(Cl)ccc1CC1CON=C(c2cc(Cl)ncc2Oc2cccc(Cl)c2F)N1 (racemic) [Compound I-083] |  |  |  | 4.59^[a] | 
